# Key:
# Mycobacterium abscessus = assay: MIC/MBC assays, CLSI method; format: cell-based; settings: Table 14, unit not given
SMILES,NO-loading (compositions of MTDD (NCT-19-096) and β-cyclodextrin) [µmol/mg],"MBC (Mycobacterium abscessus; M. abscessus N0010, clinical)","MIC (Mycobacterium abscessus; M. abscessus N0010, clinical)","MBC (Mycobacterium abscessus; M. abscessus N0016, clinical)","MIC (Mycobacterium abscessus; M. abscessus N0016, clinical)","MBC (Mycobacterium abscessus; M. abscessus N0017, clinical)","MIC (Mycobacterium abscessus; M. abscessus N0017, clinical)","MBC (Mycobacterium abscessus; M. abscessus N0018, clinical)","MIC (Mycobacterium abscessus; M. abscessus N0018, clinical)","MBC (Mycobacterium abscessus; M. abscessus N0019, clinical)","MIC (Mycobacterium abscessus; M. abscessus N0019, clinical)","MBC (Mycobacterium abscessus; M. abscessus N0020, clinical)","MIC (Mycobacterium abscessus; M. abscessus N0020, clinical)",MBC (Mycobacterium abscessus; M. abscessus N0046),MIC (Mycobacterium abscessus; M. abscessus N0046),"NO Load (Table 14, unit not given)"
"OC[C@H]1O[C@@H]2O[C@H]3[C@H](O)[C@@H](O)[C@@H](O[C@H]4[C@H](O)[C@@H](O)[C@@H](O[C@H]5[C@H](O)[C@@H](O)[C@@H](O[C@H]6[C@H](O)[C@@H](O)[C@@H](O[C@H]7[C@H](O)[C@@H](O)[C@@H](O[C@H]8[C@H](O)[C@@H](O)[C@@H](O[C@H]1[C@H](O)[C@H]2O)O[C@@H]8CO)O[C@@H]7CO)O[C@@H]6CO)O[C@@H]5CO)O[C@@H]4CO)O[C@@H]3CO [0% MTDD/100% β-cyclodextrin, β-cyclodextrin]",0.0,–,–,–,–,–,–,–,–,–,–,–,–,–,–,–
C[C@@H]1CCC[C@H](C)N1[N+]([O-])=N[O-].[Na+] [cis-DMP/NO],–,4,1,4,2,4,2,4,1,4,2,2,1,4,2,6.9

# Source: patent publication US20230337678A1, “NITRIC OXIDE-RELEASING ANTIBACTERIAL COMPOUNDS, FORMULATIONS, AND METHODS PERTAINING THERETO” (KNOW BIO, LLC, priority 2020, published 2023)
